What all share (type): physicochemical
Series [1] can be described thus: Stability to physical impact (grinding in agate mortar, powder X-ray diffraction). The conditions noted are these: 1 g ground for 1 minute in agate mortar, powder X-ray diffraction pattern compared with before grinding. How it is done: A sample (1 g) of each of the type A-D crystals was placed in an agate mortar, and ground for 1 minute, and powder X-ray diffraction pattern of the ground sample was determined. The pattern was compared with that of the crystal form before the grinding to examine a change of the crystal form.

Series [2] in a line: Thermal stability (oven heating, powder X-ray diffraction). To be noted: about 50 mg in glass bottle, under atmosphere in oven at 70° C. for 24 hours. How it is done:
A sample (about 50 mg) of each of the crystals of types A, C and D was placed in a transparent glass bottle, and heated under atmosphere in an oven at 70° C. for 24 hours. After cooling, powder X-ray diffraction pattern was measured to examine a change of the crystal form.

Series [3] is described as follows: Stability in a solvent (heated with stirring in suspension). To be noted: heated with stirring in suspension in water, methylene chloride, hexane, ethyl acetate-hexane and ethanol. An excerpt:
The type A crystals were heated with stirring in a state of suspension in a variety of solvents including water, methylene chloride, hexane, ethyl acetate-hexane and ethanol, and then examined the absence or presence of a change of the crystal form after the treatment.

Entries after “also recorded” stand apart in the source; their conditions may differ.

With `O=C1NC(=O)C(Cc2ccc3cc(OCc4ccccc4F)ccc3c2)S1` (centres unmarked) [Crystal form A, 5-[{6-(2-fluorobenzyl)oxy-2-naphthyl}methyl]-2,4-thiazolidinedione], the Change after grinding result in series [1] (listed as A) is listed as “No change”. Moreover, the “Change of the crystal form after heating” value in series [2] (listed as type A) is recorded as “no change”. Also, the “Change of the crystal form after treatment in solvents” value in series [3] was “no change”.
For `O=C1NC(=O)C(Cc2ccc3cc(OCc4ccccc4F)ccc3c2)S1` (centres unmarked) [Crystal form B, 5-[{6-(2-fluorobenzyl)oxy-2-naphthyl}methyl]-2,4-thiazolidinedione], in series [1] (listed as B), the Change after grinding entry is “Partial changes; also recorded: Partially changed”.
`O=C1NC(=O)C(Cc2ccc3cc(OCc4ccccc4F)ccc3c2)S1` (centres unmarked) [Crystal form C, 5-[{6-(2-fluorobenzyl)oxy-2-naphthyl}methyl]-2,4-thiazolidinedione]: the Change after grinding result in series [1] (listed as C) is on record as “No change”. Besides, the “Change of the crystal form after heating” value in series [2] (listed as type C) was “partial change”.
On to `O=C1NC(=O)C(Cc2ccc3cc(OCc4ccccc4F)ccc3c2)S1` (centres unmarked) [Crystal form D, 5-[{6-(2-fluorobenzyl)oxy-2-naphthyl}methyl]-2,4-thiazolidinedione], for which the Change after grinding result in series [1] (listed as D) was “Partial changes; also recorded: Partially changed”. Besides, in series [2], the “Change of the crystal form after heating” value is recorded as “no change”.

The values are drawn from patent publication US6541493B1, “Crystals of 5-[{6-(2-fluorobenzyl)oxy-2-naphthyl}methyl]-2,4-thiazolidinedione” (Mitsubishi Chemical Corporation, priority 1999, dated 2003).
